In patent US12070467B2, “Method of treating ciliated tissue using CSA micelles” (Brigham Young University, priority 2018, dated 2024):
Values joined by “and” are separate entries in the source; they are usually repeats but may differ in a detail not shown here. Equal entries are not always repeated. Where two headings read alike, the source gives them in different places.

Assays:
[1] = system: bacterial and fungal biofilms: S. aureus (ATCC 25923), P. aeruginosa (ATCC 47085), C. albicans (ATCC 90028), C. auris (CDC 384); test: Antibiofilm activity by plating organisms freed from biofilms and counting colonies (FIG. 2); assay type: cell-based; conditions: 100 μg/mL, 48 h biofilms
Protocol: Consequently, this concentration was used as a target for antibacterial and antifungal activity, as well as in tolerability studies with trachea and lung explants. A key preliminary question in these studies is whether the pluronic alone has any effect on bacteria and fungi. […] In these assays, biofilms were generated over 48 h, and after treatment, bacterial and fungal counts were determined by plating organisms freed from biofilms and counting colonies. Detection limits for the experiments were two logs. […] Antibiofilm results were determined through the plating of microorganisms freed from biofilms, culturing, and plate counting. In FIG. 2, white bars show remaining S. aureus (ATCC 25923); black bars show remaining P. aeruginosa (ATCC 47085); gray bars show remaining C. albicans (ATCC 90028); hashed bars show remaining C. auris (CDC 384). The Detection limit was 2 logs. * indicates p<0.05 relative to controls and to pluronic alone.

S. aureus ATCC 25923 = test: Minimum inhibitory concentration (MIC), broth microdilution; assay type: cell-based, Staphylococcus aureus; conditions: 37° C., 18-20 h
Protocol: (§1) Staphylococcus aureus (ATCC 25923) and Pseudomonas aeruginosa (ATCC 47085 (PA01)) were grown from fresh colonies in trypticase soy broth (TSB) and incubated overnight at 37° C. Fungal cultures, Candida albicans (ATCC 90028) and Candida auris (CDC 0382, 0384, 0387, and 0389), were grown overnight in sabouraud dextrose broth (SDB) or Roswell Park Memorial Institute medium (RPMI). Cultures of bacteria and fungi were centrifuged, and pellets were washed three times with phosphate buffered saline (PBS) and further resuspended in fresh PBS. Bacterial cultures were diluted in TSB and fungal cultures were diluted in SDB or RPMI to […] or 10^6 CFU/mL (optical density (OD) readings at 600 nm).
(§2) Minimum inhibitory concentrations (MICs) were measured using the broth microdilution protocol described by the Clinical and Laboratory Standards Institute. […] Aliquots (100 μL) of a prepared inoculum (10^6 CFU/mL for bacteria and […] CFU/mL for fungi) were added, and plates were incubated at 37° C. for 18-20 h. Bacterial or fungal growth was visually observed to determine the MICs. Negative and positive controls were included for each set of MIC measurements. For studies with pluronic, the surfactant was added at 4% and 5% to the initial inocula in each experiment. Measurements were performed in triplicate for all susceptibility tests.

[2] = system: biofilms of S. aureus (ATCC 25923), P. aeruginosa (ATCC 47085), C. albicans (ATCC 90028), C. auris (CDC 384); test: Antibiofilm colorimetric (XTT) assay, percent survival (FIG. 3); assay type: cell-based; conditions: 24 h, p<0.05 relative to controls
Protocol: Biofilm formation by selected bacterial and fungal strains was quantified by measuring metabolic activity within biofilms using 2,3-bis-(2-methoxy-4-nitro-5-sulfophenyl)-2H-tetrazolium-5-carboxanilide (XTT). Biofilms were formed in 96-well plates and incubated for 48 h at 37° C. […] After incubation, the wells were carefully washed with PBS. A solution of 10 mM menadione in 100% acetone was added to an XTT solution (0.5 mg/mL) and mixed. An aliquot of the XTT/menadione solution (100 μL) was added to each well. Each plate was then wrapped in aluminum foil and incubated for 2-3 h at 37° C. To prepare to read the optical density, aliquots of the supernatant (70 μL) were removed from each well. Using a microtiter plate reader, colorimetric changes were measured at 490 nm. […] (control). To corroborate the antibiofilm data from counting bacterial and fungal colonies, a colorimetric assay was performed to quantify biofilms remaining on surfaces after treatment. Results were normalized to untreated controls. […] Antibiofilm results determined through colorimetric (XTT) assay represented as percent survival. […]

[3] = system: cilia on porcine trachea explants; conditions: for Number of explants (out of 12) clearing beads, <10 min / Number of explants (out of 12) clearing beads, <20 min / Number of explants (out of 12) clearing beads, <30 min / Number of explants (out of 12), No Clearance: CSA-131 100 μg/mL for 1 h; for Number of explants (out of 12) clearing beads, <20 min: between 10 and 20 min; for Number of explants (out of 12) clearing beads, <30 min: between 20 and 30 min; for Number of explants (out of 12), No Clearance: no clearance (>30 min)
Protocol: In this example, the effect of CSA compositions with and without micelles was tested using ciliated porcine lung tissue. […] An ex vivo assay was used to evaluate pluronic-containing formulations, and in this assay the beating of cilia can be actively observed. […] This method involves sectioning porcine trachea, supported in a nutrient medium, placing small beads on one side of the explant, and measuring the transfer (clearance) of the beads to the other side of the explants (FIG. 5). […] Twelve explants were used for each test condition, and the results are reported as the number clearing beads in a given amount of time.
Normal healthy porcine trachea and lung tissue was excised very fresh from slaughter. After aseptic collection, whole tissues were transported in a 1:1 mixture of Dulbecco's modified Eagle's medium (DMEM) and RPMI, which was pre-warmed and supplemented with penicillin-streptomycin-glutamine 100× (Hyclone, Logan, UT, USA). Explants were washed by tissue immersion three to four times in warm, fresh DMEM/RPMI media. Explants were maintained by continuous immersion in DMEM/RPMI media in a 5% CO2-95% air mixture in a humidified incubator at 37° C.
Tracheas were washed and extra exterior tissues to the cartilage were removed. Tracheas were opened and cut into approximately 2×1 cm explants consisting of the respiratory mucosa and underlying cartilage. […] Explants were then placed on small circular filter papers, which were placed on top of 1% agarose gel plugs bathed in medium in 6-well plates. […] Five microliters of a suspension of 1 μm diameter polystyrene microsphere beads (Polysciences, Inc., Warrington, PA, USA) were pipetted on one edge of epithelial surfaces and evaluated for their complete clearance (movement) across the surface with categorization of clearance in under 10 min, between 10 and 20 min, between 20 and 30 min, and no clearance (>30 min). Independent replicates were completed for each time point. Outcomes were then counted and a percentage of clearance was determined.

C. albicans ATCC 90028 = test: Minimum inhibitory concentration (MIC), broth microdilution; assay type: cell-based, Candida albicans; conditions: 37° C., 18-20 h
Protocol: as §1, §2

C. albicans = test: Kinetics of fungicidal activity; assay type: cell-based, Candida albicans; conditions: CSA-131 100 μg/mL, pluronic 4%, data not shown
Protocol: Cultures were incubated at 37° C. At 5, 15, 30, 60, and 120 min, aliquots were removed from each well and added to neutralizing buffer to ensure that no further antibacterial activity occurred. These samples were then serially diluted and plated on TSA or SDA. Cultures were incubated at 37° C. for 24 h or 48 h, and colonies were counted and recorded.
Detection limit was two logs.

[4] = system: C. albicans ATCC 90028 biofilm; test: Minimum biofilm eradication concentration (MBEC); assay type: cell-based, Candida albicans; conditions: 48 h biofilm, 24 h treatment
Protocol: as §1
Inocula (10^6 CFU/mL) of bacterial and fungal strains (P. aeruginosa, S. aureus, C. albicans, and C. auris) were incubated at 37° C. for 48 h in 1 mL of TSB or SDB in 96-well plates. Following incubation, the growth medium was gently removed, and wells were washed three times with sterile PBS. […] Wells, including well edges, were scraped thoroughly with a plastic spatula. Well contents were removed in 1 mL of neutralizing broth (Dey-Engley, Sigma-Aldrich) and placed in a sonicating water bath (Fisher Scientific FS60, 42 kHz, 100 W, Pittsburgh, PA, USA) to disrupt biofilms. […] After 24 h or 48 h of incubation at 37° C., colonies were counted and MBECs were determined. […]

Compound: CCCCCCCCCCCCNCCC[C@@H](C)[C@H]1CC[C@H]2[C@@H]3[C@H](OCCCN)C[C@@H]4C[C@H](OCCCN)CC[C@]4(C)[C@H]3C[C@H](OCCCN)[C@]12C.Cl.Cl.Cl.Cl [CSA-131]
- Reduction of bacterial and fungal counts from biofilms ([1]; with pluronic): > 99.99%
- Reduction of bacterial and fungal counts from biofilms ([1]; with pluronic, counts lowered to the detection limit (two logs)): > four
- Reduction of bacterial and fungal counts from biofilms ([1]; without pluronic): > 99.99%
- Reduction of bacterial and fungal counts from biofilms ([1]; without pluronic, counts lowered to the detection limit (two logs)): > four
- MIC (S. aureus ATCC 25923): 1 µg/mL
- Biofilm remaining after treatment (XTT, percent survival vs untreated control) ([2]; CSA-131 100 μg/mL alone): Significant decreases in biofilm
- Biofilm remaining after treatment (XTT, percent survival vs untreated control) ([2]; CSA-131 100 μg/mL with pluronic, difference to CSA-131 alone not significant): Significant decreases in biofilm
- Number of explants (out of 12) clearing beads, <10 min ([3]; 0% pluronic): 3/12
- Number of explants (out of 12) clearing beads, <20 min ([3]; 0% pluronic): 2/12
- Number of explants (out of 12) clearing beads, <30 min ([3]; 0% pluronic): 1/12
- Number of explants (out of 12), No Clearance ([3]; 0% pluronic): six of 12 and 6/12
- Number of explants (out of 12) clearing beads, <10 min ([3]; 1% pluronic): 4/12
- Number of explants (out of 12) clearing beads, <20 min ([3]; 1% pluronic): 2/12
- Number of explants (out of 12) clearing beads, <30 min ([3]; 1% pluronic): 1/12
- Number of explants (out of 12), No Clearance ([3]; 1% pluronic): 5/12
- Number of explants (out of 12) clearing beads, <10 min ([3]; 2% pluronic): 7/12
- Number of explants (out of 12) clearing beads, <20 min ([3]; 2% pluronic): 3/12
- Number of explants (out of 12) clearing beads, <30 min ([3]; 2% pluronic): 2/12
- Number of explants (out of 12) clearing beads, <10 min ([3]; 3% pluronic): 7/12
- Number of explants (out of 12) clearing beads, <20 min ([3]; 3% pluronic): 4/12
- Number of explants (out of 12) clearing beads, <30 min ([3]; 3% pluronic): 1/12
- Number of explants (out of 12) clearing beads, <10 min ([3]; 4% pluronic): 8/12
- Number of explants (out of 12) clearing beads, <20 min ([3]; 4% pluronic): 4/12
- Number of explants (out of 12) clearing beads, <10 min ([3]; 5% pluronic): 10/12
- Number of explants (out of 12) clearing beads, <20 min ([3]; 5% pluronic): 2/12
- Influence on bead clearance ([3]; CSA-131 100 μg/mL with pluronic (4%)): did not influence bead clearance
- Bead clearance / ciliary activity compared with the control ([3]; CSA-131 100 μg/mL, 5% pluronic): the same as the control
- MIC (C. albicans ATCC 90028): 0.5 µg/mL
- Difference in kinetic activity of the ceragenin alone and with pluronic (C. albicans): no significant differences
- MBEC [4]: 48 µg/mL
